Measured values as given in patent US20250144067A1, “PERSONALIZED STARVATION THERAPY FOR CANCER” (Faeth Therapeutics, Inc., priority 2021, published 2025).
Where a name gives a salt, the structure may show the parent alone. Read-outs that look alike come from different tables or passages of the source.

How the values were obtained:
[1] = tested on: NCI-H292 lung cancer cells; assay: FDA drug screening, complete media vs cholesterol-free media without statin (TABLE 1); type: cell-based, human
[2] = tested on: NCI-H292 lung cancer cells; assay: FDA drug screening, complete media vs cholesterol-free media with simvastatin (TABLE 2); type: cell-based, human
[3] = Complete minus Cholesterol-free, […]
[4] = NCI-H292 cells, FDA drug library screen, cholesterol-free media without statin
[5] = NCI-H292 cells, FDA drug library screen, complete media
[6] = NCI-H292 cells, FDA library drug in cholesterol-free media with simvastatin 0.04 μM
[7] = NCI-H292 cells, FDA library drug in complete media
[8] = complete media vs cholesterol-free media + simvastatin (0.04 μM), […]
[9] = Complete minus Cholesterol-free, greater than 0 enhanced anti-cancer activity, about 0 neutral, below 0 antagonist
[10] = NCI-H292 cells, FDA drug library screen, cholesterol-free media with simvastatin 0.04 μM
[11] = complete media minus cholesterol-free media + simvastatin, >0 enhanced anti-cancer activity, about 0 neutral, <0 antagonist
[12] = NCI-H292 cells, drug in cholesterol-free media with simvastatin 0.04 μM
[13] = NCI-H292 cells, drug in complete media
[14] = complete media vs cholesterol-free media + simvastatin (0.04 μM), >0 enhanced anti-cancer activity, about 0 neutral, <0 antagonist
[15] = Complete minus Cholesterol-free, greater than 0 enhanced anti-cancer activity, about 0 neutral, below 0 antagonists
[16] = NCI-H292 cells in cholesterol-free media without statin
[17] = NCI-H292 cells in complete media
[18] = NCI-H292 cells, cholesterol-free media with simvastatin 0.04 μM, cell growth value in FDA drug screen
[19] = NCI-H292 cells, complete media, cell growth value in FDA drug screen
[20] = Complete minus Cholesterol-free, >0 enhanced anti-cancer activity, about 0 neutral, <0 antagonist
[21] = NCI-H292 cells, cholesterol-free media without statin, FDA drug library screen
[22] = NCI-H292 cells, complete media, FDA drug library screen
[23] = NCI-H292 cells, cholesterol-free media with simvastatin 0.04 μM, FDA drug library screen (TABLE 2)
[24] = NCI-H292 cells, complete media, FDA drug library screen (TABLE 2)
[25] = complete media minus cholesterol-free media + simvastatin (0.04 μM), >0 enhanced anti-cancer activity, about 0 neutral, <0 antagonist
[26] = NCI-H292 cells, cholesterol-free media without statin
[27] = complete vs cholesterol-free media, greater than 0 enhanced anti-cancer activity, about 0 neutral, below 0 antagonists

Nc1ccc(C(=O)[O-])c(O)c1.O.O.[Na+] [Sodium 4-aminosalicylate (dihydrate)]
Difference [1, 3]: −0.15
Cholesterol-free [1, 4]: 1.093
Complete [1, 5]: 0.9477
Cholesterol-free media + simvastatin (0.04 μM) [2, 6]: 1.473
Complete Media [2, 7]: 1.188
Difference [2, 8]: −0.29

CCN(CC)C(=O)c1cccnc1 [Nikethamide]
Difference [1, 9]: −0.18
Cholesterol-free [1, 4]: 1.071
Complete [1, 5]: 0.8953
Cholesterol-free media + simvastatin (0.04 μM) [2, 10]: −0.004932
Complete Media [2, 5]: 1.43
Difference [2, 11]: 1.44

Cc1ccc(Nc2nccc(N(C)c3ccc4c(C)n(C)nc4c3)n2)cc1S(N)(=O)=O [Pazopanib (Hydrochloride)]
Difference [1, 9]: −0.12
Cholesterol-free [1, 4]: 1.089
Complete [1, 5]: 0.9723
Cholesterol-free media + simvastatin (0.04 μM) [2, 10]: 0.5325
Complete Media [2, 5]: 1.206
Difference [2, 11]: 0.67

CCS(=O)(=O)CCn1c([N+](=O)[O-])cnc1C [Tinidazole]
Difference [1, 9]: −0.13
Cholesterol-free [1, 4]: 1.121
Complete [1, 5]: 0.9876
Cholesterol-free media + simvastatin (0.04 μM) [2, 12]: 0.8398
Complete Media [2, 13]: 0.6611
Difference [2, 14]: −0.18

Butoconazole (nitrate)
Difference [1, 9]: −0.19
Cholesterol-free [1, 4]: 0.9845
Complete [1, 5]: 0.7977
Cholesterol-free media + simvastatin (0.04 μM) [2, 10]: 0.1838
Complete Media [2, 5]: 0.9232
Difference [2, 11]: 0.74

NC(=O)[C@@H]1CC[C@@H]2CN1C(=O)N2OS(=O)(=O)O [Avibactam (sodium)]
Difference [1, 15]: −0.74
Cholesterol-free [1, 16]: 1.514
Complete [1, 17]: 0.7743
Cholesterol-free media + simvastatin (0.04 μM) [2, 18]: 1.031
Complete Media [2, 19]: 1.132
Difference [2, 11]: 0.10

CO/N=C(\C(=O)N[C@@H]1C(=O)N2C(C(=O)O)=C(CSc3nc(C)c(CC(=O)O)s3)CS[C@H]12)c1csc(N)n1 [Cefodizime]
Difference [1, 20]: −0.06
Cholesterol-free [1, 21]: 0.9888
Complete [1, 22]: 0.9297
Cholesterol-free media + simvastatin (0.04 μM) [2, 12]: 1.707
Complete Media [2, 13]: 1.539
Difference [2, 14]: −0.17

CN1CCc2c(c3ccccc3n2Cc2ccccc2)C1 [Mebhydrolin (napadisylate)]
Cholesterol-free [1, 21]: 1.008
Complete [1, 22]: 1.238
Difference ([1]; complete vs cholesterol-free media, >0 enhanced anti-cancer activity, about 0 neutral, <0 antagonist): 0.23
Cholesterol-free media + simvastatin (0.04 μM) [2, 23]: 0.9255
Complete Media [2, 24]: 0.929
Difference [2, 25]: 0.00

CC(C)(CO)C(O)C(=O)NCCCO (racemic) [DL-Panthenol]
Difference [1, 15]: −0.82
Cholesterol-free [1, 16]: 1.816
Complete [1, 17]: 0.9995
Cholesterol-free media + simvastatin (0.04 μM) [2, 10]: 1.177
Complete Media [2, 5]: 1.049
Difference [2, 14]: −0.13

N[C@H]1CONC1=O [L-Cycloserine]
Difference [1, 15]: −0.78
Cholesterol-free [1, 16]: 1.458
Complete [1, 17]: 0.6746
Cholesterol-free media + simvastatin (0.04 μM) [2, 18]: 0.815
Complete Media [2, 19]: 0.9066
Difference [2, 11]: 0.09

Clc1cccc(Cl)c1N=C1NCCN1 [Clonidine (hydrochloride)]
Difference [1, 9]: −0.12
Cholesterol-free [1, 4]: 0.9351
Complete [1, 5]: 0.8162
Cholesterol-free media + simvastatin (0.04 μM) [2, 10]: 1.083
Complete Media [2, 5]: 0.9532
Difference [2, 14]: −0.13

COc1ccc(-c2nc3ccc(C4=NNC(=O)CC4C)cc3[nH]2)cc1 (stereo not drawn) [Pimobendan]
Difference [1, 9]: −0.11
Cholesterol-free [1, 4]: 1.104
Complete [1, 5]: 0.9932
Cholesterol-free media + simvastatin (0.04 μM) [2, 23]: 1.535
Complete Media [2, 24]: 1.535
Difference [2, 25]: 0.00

CN(C)CCCN1c2ccccc2CCc2ccccc21 [Imipramine (hydrochloride)]
Difference [1, 20]: −0.21
Cholesterol-free [1, 26]: 1.052
Complete ([1]; NCI-H292 cells, complete media): 0.8395
Cholesterol-free media + simvastatin (0.04 μM) [2, 10]: 0.9417
Complete Media [2, 5]: 0.8694
Difference [2, 14]: −0.07

C=CC[N+]1([C@H]2C[C@H]3[C@@H]4CC[C@H]5C[C@H](OC(C)=O)[C@@H](N6CCCCC6)C[C@]5(C)[C@H]4CC[C@]3(C)[C@H]2OC(=O)CC)CCCCC1 [Rapacuronium bromide]
Difference [1, 3]: 0.04
Cholesterol-free [1, 21]: 0.8802
Complete [1, 22]: 0.9158
Cholesterol-free media + simvastatin (0.04 μM) [2, 6]: 1.051
Complete Media [2, 7]: 0.7626
Difference [2, 8]: −0.29

CC(C)(C)C(=O)OCC(=O)[C@H]1CC[C@H]2[C@@H]3CCC4=CC(=O)CC[C@]4(C)[C@H]3CC[C@]12C [Desoxycorticosterone pivalate]
Cholesterol-free [1]: 1.574
Complete [1]: 1.04
Difference [1]: −0.53
Cholesterol-free media + simvastatin (0.04 μM) [2]: 1.728
Complete Media [2]: 1.762
Difference [2]: 0.03

Bremelanotide (Acetate)
Difference [1, 3]: −0.90
Cholesterol-free [1, 16]: 1.638
Complete [1, 17]: 0.7395
Cholesterol-free media + simvastatin (0.04 μM) [2, 6]: 1.644
Complete Media [2, 7]: 1.021
Difference [2, 8]: −0.62

O=c1[nH]c2ccccc2n1C1CCN(CCCC(c2ccc(F)cc2)c2ccc(F)cc2)CC1 [Pimozide]
Cholesterol-free [1, 26]: 1.1
Complete ([1]; NCI-H292 cells, complete media): 0.6361
Difference [1, 27]: −0.46
Cholesterol-free media + simvastatin (0.04 μM) [2, 10]: 0.8031
Complete Media [2, 5]: 0.9681
Difference [2, 11]: 0.16

COC(=O)[C@H]1[C@H]2C[C@@H]3c4[nH]c5cc(OC)ccc5c4CCN3C[C@H]2C[C@@H](OC(=O)c2cc(OC)c(OC)c(OC)c2)[C@@H]1OC [Reserpine (hydrochloride)]
Cholesterol-free [1, 26]: 1.178
Complete ([1]; NCI-H292 cells, complete media): 0.8568
Difference [1, 27]: −0.32
Cholesterol-free media + simvastatin (0.04 μM) [2, 12]: 1.074
Complete Media [2, 13]: 0.834
Difference [2, 14]: −0.24

C=C1C[C@@H]2[C@H](CC[C@]3(C)C(=O)CC[C@@H]23)[C@@]2(C)C=CC(=O)C=C12 [Exemestane]
Difference [1, 20]: −0.01
Cholesterol-free [1, 21]: 1.056
Complete [1, 22]: 1.048
Cholesterol-free media + simvastatin (0.04 μM) [2, 6]: 1.215
Complete Media [2, 7]: 0.9053
Difference [2, 14]: −0.31

OC[C@H]1O[C@@](CO)(O[C@H]2O[C@H](CO)[C@@H](O)[C@H](O)[C@H]2O)[C@@H](O)[C@@H]1O [Sucrose]
Difference [1, 15]: −0.74
Cholesterol-free [1, 16]: 1.582
Complete [1, 17]: 0.843
Cholesterol-free media + simvastatin (0.04 μM) [2, 6]: 1.867
Complete Media [2, 7]: 0.9772
Difference [2, 14]: −0.89

c1ccc2c(c1)CCCC2C1=NCCN1 (stereo not drawn) [Tetrahydrozoline (hydrochloride)]
Difference [1, 20]: −0.03
Cholesterol-free [1, 21]: 0.9833
Complete [1, 22]: 0.9541
Cholesterol-free media + simvastatin (0.04 μM) [2, 10]: 1.06
Complete Media [2, 5]: 0.9332
Difference [2, 14]: −0.13

COc1cccc(CCc2ccccc2OCC(CN(C)C)OC(=O)CCC(=O)O)c1 (stereo not drawn) [Sarpogrelate (hydrochloride)]
Cholesterol-free [1, 26]: 1.015
Complete ([1]; NCI-H292 cells, complete media): 0.6472
Difference [1, 27]: −0.37
Cholesterol-free media + simvastatin (0.04 μM) [2, 6]: 1.378
Complete Media [2, 7]: 1.089
Difference [2, 14]: −0.29
